Laboratory results reported in ChEMBL document CHEMBL5352412, “Discovery of 1,2-diphenylethene derivatives as human DNA topoisomerase II catalytic inhibitors and antitumor agents” (Eur J Med Chem, 2022).
Activity calls are given as the source filed them. The calls are words filed in the database; no cut-off is given here.

Tests used:
[1] = target: T1, DNA topoisomerase 2-alpha (Homo sapiens, UniProt P11388); experiment: Inhibition of human topoisomerase 2-alpha using pBR322 DNA as substrate incubated for 30 mins in presence of 0.5 to 5 mM ATP (reference value: 3.4 microM)
[2] = Antiproliferative activity against human BEAS-2B cells incubated for 72 hrs by CCK8 assay; type: toxicity, cell-based
[3] = tested on: HepG2; experiment: Induction of cell cycle arrest in human HepG2 cells assessed as accumulation of cells at G1 phase at 1 uM incubated for 24 hrs by PI staining based flow cytometry analysis (reference value: 54%); type: functional
[4] = Selectivity index, ratio of IC50 for human HL-7702 cells to IC50 for human MDA-MB-231 cells; type: toxicity; conditions: HL-7702 cells versus MDA-MB-231 cells, read-out: Ratio IC50
[5] = species on record: Homo sapiens; experiment: Selectivity index, ratio of IC50 for human CCL-226 cells to IC50 for human HepG2 cells
[6] = target: T1, DNA topoisomerase 2-alpha; experiment: Poison activity at human topoisomerase 2-alpha assessed as linear DNA formation at 100 to 200 microM; conditions: dose 100-200 µM
[7] = tested on: HepG2; experiment: Induction of cell cycle arrest in human HepG2 cells assessed as accumulation of cells at G2/M phase at 0.5 uM incubated for 24 hrs by PI staining based flow cytometry analysis (reference value: 17.5%); type: functional
[8] = target: T1, DNA topoisomerase 2-alpha; experiment: Inhibition of human topoisomerase 2-alpha assessed as reduction in relaxation of pBR322 DNA measured after 30 mins by agarose gel electrophoresis method
[9] = Selectivity index, ratio of IC50 for human BEAS-2B cells to IC50 for human MDA-MB-231 cells; type: toxicity; conditions: BEAS-2B cells versus MDA-MB-231 cells, read-out: Ratio IC50
[10] = Selectivity index, ratio of IC50 for human HL-7702 cells to IC50 for human HeLa cells; type: toxicity; conditions: HL-7702 cells versus HeLa cells, read-out: Ratio IC50
[11] = target: T1, DNA topoisomerase 2-alpha; experiment: Inhibition of human topoisomerase 2-alpha assessed as reduction in VP-16 induced enzyme-DNA cleavage complex formation by measuring linear DNA production; conditions: dose 10-100 µM
[12] = Selectivity index, ratio of IC50 for human HL-7702 cells to IC50 for human HCT-116 cells; type: toxicity; conditions: HL-7702 cells versus HCT-116 cells, read-out: Ratio IC50
[13] = tested on: PC-3; experiment: Antiproliferative activity against human PC-3 cells incubated for 72 hrs by CCK8 assay; type: functional, cell-based; conditions: PC-3, 72 h
[14] = Antiproliferative activity against human CCL-226 cells incubated for 72 hrs by CCK8 assay; type: toxicity, cell-based
[15] = species on record: Homo sapiens; experiment: Selectivity index, ratio of IC50 for human CCL-226 cells to IC50 for human PC-3 cells

T1 sequence (P11388 whole entry): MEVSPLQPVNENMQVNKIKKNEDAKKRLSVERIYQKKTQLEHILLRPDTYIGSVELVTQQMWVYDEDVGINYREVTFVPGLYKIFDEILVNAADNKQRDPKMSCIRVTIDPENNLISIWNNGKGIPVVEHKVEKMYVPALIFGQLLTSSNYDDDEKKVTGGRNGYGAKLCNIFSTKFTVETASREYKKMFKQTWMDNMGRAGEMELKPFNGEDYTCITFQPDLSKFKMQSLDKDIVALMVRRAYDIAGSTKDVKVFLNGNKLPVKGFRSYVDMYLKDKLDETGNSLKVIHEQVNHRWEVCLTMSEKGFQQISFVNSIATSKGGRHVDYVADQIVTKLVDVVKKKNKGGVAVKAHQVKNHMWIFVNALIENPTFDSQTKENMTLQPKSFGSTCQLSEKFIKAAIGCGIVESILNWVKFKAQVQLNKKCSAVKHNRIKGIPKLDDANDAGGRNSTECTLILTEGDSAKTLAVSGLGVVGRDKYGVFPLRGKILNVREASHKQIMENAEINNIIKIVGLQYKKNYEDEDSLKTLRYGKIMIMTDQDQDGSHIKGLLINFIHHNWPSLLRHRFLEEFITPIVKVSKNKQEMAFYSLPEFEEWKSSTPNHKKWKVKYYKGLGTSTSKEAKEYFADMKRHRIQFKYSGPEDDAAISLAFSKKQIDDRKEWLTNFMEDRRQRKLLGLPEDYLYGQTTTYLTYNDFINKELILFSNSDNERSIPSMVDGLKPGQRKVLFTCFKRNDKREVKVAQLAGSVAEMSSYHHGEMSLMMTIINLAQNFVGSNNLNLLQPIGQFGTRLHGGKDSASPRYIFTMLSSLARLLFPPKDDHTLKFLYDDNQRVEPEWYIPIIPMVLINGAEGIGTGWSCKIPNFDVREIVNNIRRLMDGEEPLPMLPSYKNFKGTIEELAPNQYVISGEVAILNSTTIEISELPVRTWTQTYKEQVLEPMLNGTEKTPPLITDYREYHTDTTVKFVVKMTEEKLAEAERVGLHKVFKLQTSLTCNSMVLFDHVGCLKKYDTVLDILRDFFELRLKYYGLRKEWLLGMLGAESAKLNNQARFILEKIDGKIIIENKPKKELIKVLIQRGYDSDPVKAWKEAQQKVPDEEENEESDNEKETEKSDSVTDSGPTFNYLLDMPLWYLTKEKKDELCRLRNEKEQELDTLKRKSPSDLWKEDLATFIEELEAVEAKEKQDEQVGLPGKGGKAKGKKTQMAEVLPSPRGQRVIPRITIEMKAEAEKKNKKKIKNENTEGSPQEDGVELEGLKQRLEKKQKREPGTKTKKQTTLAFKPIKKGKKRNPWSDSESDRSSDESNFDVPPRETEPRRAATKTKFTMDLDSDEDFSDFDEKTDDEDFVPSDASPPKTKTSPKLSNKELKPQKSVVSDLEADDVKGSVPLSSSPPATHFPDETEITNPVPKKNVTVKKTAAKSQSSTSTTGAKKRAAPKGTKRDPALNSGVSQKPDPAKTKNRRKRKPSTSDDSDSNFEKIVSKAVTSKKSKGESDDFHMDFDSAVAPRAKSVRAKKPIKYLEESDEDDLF

- IC50 [1]: 13.4 µM
- Ratio IC50 [5]: > 52.1
- IC50 [8]: 3.8 µM
- inhibition [11]: Dose-Dependent Effect
- IC50 [13]: 0.3 µM
- Ratio IC50 [15]: > 52.1
Structure (SMILES): O=C(CCc1ccccc1)Nc1ccc(-c2ccc3cc(O)ccc3c2)cc1
- IC50 at 72 h [2]: 31.9 µM
- Activity [3]: 3.3%
- selectivity ratio [4]: > 52.1
- Activity [6]: inactive
- Activity [7]: 48.9%
- selectivity ratio [9]: > 52.1
- selectivity ratio [10]: > 52.1
- selectivity ratio [12]: > 52.1
- IC50 at 72 h [14]: > 50 µM
